These molecules were tested on α2-subtype of the human α-adrenergic receptor (assay: SPA assay for affinity for the α2-subtype of the human α-adrenergic receptor (high throughput screening)). Conditions: at a concentration of 10 μM.
Type: binding
Description: The compounds according to the invention are ligands of the pain-relevant α2-subtype of the human α-adrenergic receptor. The affinity for the α2-subtype of the human α-adrenergic receptor was determined by means of a conventional SPA assay for high throughput screening, such as is described in John P. Devlin, High Throughput Screening, Marcel Dekker Inc. 1997, page 307 to 316. This literature is incorporated herein by reference and thus forms part of the disclosure. The following affinities were determined at a concentration of 10 μM: […]

Row | Compound | alpha2 affinity, 10 μM
1 | CCCCN(C(C)=O)c1c(-c2ccc(C(C)(C)C)cc2)nc2sc(C)cn12 [Example 56, N-Butyl-N-[6-(4-tert-butyl-phenyl)-2-methyl-imidazo[2,1-b]thiazol-5-yl]-acetamide] | 46%
2 | CC(=O)Nc1ccc(-c2nc3nc[nH]n3c2NC2CCCCC2)cc1 [Example 48, N-[4-(6-Cyclohexylamino-imidazo[1,2-b][1,2,4]triazol-5-yl) -phenyl]-acetamide] | 36%
3 | c1ccc2c(-c3nc4nc[nH]n4c3NC3CCCCC3)cccc2c1 [Example 46, Cyclohexyl-(5-naphthalen-1-yl-imidazo[1,2-b][1,2,4]triazol-6-yl)-amine] | 46%
4 | CCCCN(C(C)=O)c1c(-c2c(F)cccc2Cl)nc2nc[nH]n12 [Example 55, N-Butyl-N-[5-(2-chloro-6-fluorophenyl)-imidazo[1,2-b][1,2,4]triazol-6-yl]-acetamide] | 39%
5 | Cc1ccc(-c2nc3nc[nH]n3c2NC(C)(C)CC(C)(C)C)c(C)c1 [Example 53, [5-(2,4-dimethyl-phenyl)-imidazo[1,2-b][1,2,4]triazol-6-yl]-(1,1,3,3-tetramethyl-butyl) -amine] | 43%
6 | CC(=O)N(c1c(-c2ccc(C)cc2)nc2sccn12)C(C)(C)C [Example 52, N-tert-Butyl-N-(6-p-tolyl-imidazo[2,1-b]thiazol-5-yl)-acetamide] | 51%
7 | CC(C)(C)Nc1c(-c2cccc3ccccc23)nc2nc[nH]n12 [Example 45, tert-Butyl-(5-naphthalen-1-yl-imidazo[1,2-b][1,2,4]triazol-6-yl)-amine] | 41%
8 | CC(C)(C)Nc1c(-c2ccccc2F)nc2sccn12 [Example 44, tert-Butyl-[6-(2-fluorophenyl)-imidazo[2,1-b]thiazol-5-yl]-amine] | 38%
9 | CCCCNc1c(-c2ccc(C(C)(C)C)cc2)nc2sc(C)cn12 [Example 42, Butyl-[6-(4-tert-butyl-phenyl)-2-methyl-imidazo[2,1-b]thiazol-5-yl]-amine] | 36%
10 | Cc1ccc(-c2nc3sccn3c2NC2CCCCC2)c(C)c1 [Example 50, Cyclohexyl-[6-(2,4-dimethyl-phenyl)-imidazo[2,1-b]thiazol-5-yl]-amine] | 36%
11 | Cc1ccc(C)c(-c2nc3nc[nH]n3c2NC(C)(C)C)c1 [Example 49, tert-Butyl-[5-(2,5-dimethyl-phenyl)-imidazo[1,2-b][1,2,4]triazol-6-yl]-amine] | 38%
12 | CC(C)(C)Nc1c(-c2ccccc2F)nc2nc[nH]n12 [Example 43, tert-Butyl-[5-(2-fluorophenyl)-imidazo[1,2-b][1,2,4]triazol-6-yl]-amine] | 34%
13 | CC(C)(C)CC(C)(C)Nc1c(-c2ccccc2Br)nc2nc[nH]n12 [Example 47, [5-(2-Bromophenyl)-imidazo[1,2-b][1,2,4]triazol-6-yl]-(1,1,3,3-tetramethyl-butyl)-amine] | 42%
14 | Cc1ccc(C)c(-c2nc3sccn3c2NC2CCCCC2)c1 [Example 51, Cyclohexyl-[6-(2,5-dimethylphenyl)-imidazo[2,1-b]thiazol-5-yl]-amine] | 39%
15 | Cc1ccc(C)c(-c2nc3nc[nH]n3c2NC(C)(C)CC(C)(C)C)c1 [Example 54, [5-(2,5-Dimethyl-phenyl)-imidazo [1,2-b][1,2,4]triazol-6-yl]-(1,1,3,3-tetramethyl-butyl) -amine] | 56%

— patent publication US6936631B2, “Bicyclic imidazo-5-yl-amine derivatives” (Gruenenthal GmbH, priority 1999, dated 2005)
